# Reference: US6451780B1, “Progesterone antagonists for the production of pharmaceutical agents for the treatment of dysfunctional uterine bleeding” (Schering Aktiengesellschaft, priority 1995, dated 2002)
# What was measured:
# Assay type in all cases: in vivo
# [1] = test system: Women with menorrhagias and hypermenorrhea; test: Acute treatment of menorrhagias and hypermenorrhea with onapristone
# Description: Acute Treatment of Menorrhagias and Hypermenorrhea by One-time Administration of Onapristone Women with menorrhagias and hypermenorrhea are orally treated on a one-time basis with 200-400 mg of onapristone on the 28th day of the cycle or on the first day of bleeding. The treatment induces menstruation-like bleeding of normal intensity (about 30 ml) and duration (about 5 days). Acute Treatment of Menorrhagias and Hypermenorrhea by Repeated Administration of Onapristone Women with menorrhagias and hypermenorrhea are orally treated until bleeding ceases on the 28th day of the cycle or on the first day of bleeding with 200-400 mg/day of onapristone, at most over 10 days.
# [2] = test system: Women with menorrhagias and hypermenorrhea; test: Prophylactic treatment of menorrhagias and hypermenorrhea with onapristone; conditions: 3-6 cycles
# Description: Prophylactic Treatment of Menorrhagias and Hypermenorrhea by One-time Administration of Onapristone Women with menorrhagias and hypermenorrhea are orally treated with 200-400 mg of onapristone every 28 days. […] The treatment is continued for 3-6 cycles. Prophylactic Treatment of Menorrhagias and Hypermenorrhea by Repeated Administration of Onapristone Women with menorrhagias and hypermenorrhea are orally treated every 28 days for a maximum of 10 days with 200-400 mg/day of onapristone. […] The treatment is continued for 3-6 cycles.
# [3] = test system: Women with dysfunctional metrorrhagias; test: Acute treatment of metrorrhagias with onapristone; conditions: one-time oral 200-400 mg, preferably luteal phase
# Description: Acute Treatment of Metrorrhagias by One-time Administration of Onapristone Women with dysfunctional metrorrhagias are orally treated on a one-time basis with 200-400 mg of onapristone. Preferred is treatment in the luteal phase of the cycle. The treatment results in a cessation of bleeding within 2-4 days.
# [4] = test system: Women with dysfunctional metrorrhagias; test: Prophylactic treatment of metrorrhagias with onapristone; conditions: 3-6 cycles
# Description: Prophylactic Treatment of Metrorrhagias by One-time Administration of Onapristone Women with dysfunctional metrorrhagias are orally treated on a one-time basis with 200-400 mg of onapristone every 28 days. […] The treatment is continued for 3-6 cycles. Prophylactic Treatment of Metrorrhagias by Repeated Administration of Onapristone Women with dysfunctional metrorrhagias are orally treated every 28 days for a maximum of 10 days with 200-400 mg/day of onapristone. […] The treatment is continued over 3-6 cycles.
# [5] = one-time oral 200-400 mg on 28th day of cycle or first day of bleeding
# [6] = repeated oral 200-400 mg/day until bleeding ceases, at most 10 days, from 28th day of cycle or first day of bleeding
# [7] = one-time oral 200-400 mg every 28 days
# [8] = repeated oral 200-400 mg/day every 28 days for a maximum of 10 days
compound,measurement,setting,value
"CN(C)c1ccc([C@H]2C[C@]3(C)[C@@H](CC[C@]3(O)CCCO)[C@@H]3CCC4=CC(=O)CCC4=C32)cc1 [onapristone, 11β-(4-dimethylaminophenyl)-17α-hydroxy-17β-(3-hydroxy-propyl)-13α-methyl-4,9-gonadien-3-one]",duration of induced menstruation-like bleeding,[1]; [5],about 5 days
same,intensity of induced menstruation-like bleeding,[1]; [5],about 30 ml
same,increased blood loss,"[1]; repeated oral 200-400 mg/day until bleeding ceases, at most 10 days",prevents increased blood loss
same,duration of induced menstruation-like bleeding,[1]; [6],about 5 days
same,intensity of induced menstruation-like bleeding,[1]; [6],about 30 ml
same,duration of induced menstruation-like bleeding,[2]; [7],about 5 days
same,intensity of induced menstruation-like bleeding,[2]; [7],about 30 ml
same,occurrence of menorrhagias and hypermenorrhea,[2]; [7],prevents the occurrence of menorrhagias and hypermenorrhea
same,duration of induced menstruation-like bleeding,[2]; [8],about 5 days
same,intensity of induced menstruation-like bleeding,[2]; [8],about 30 ml
same,occurrence of menorrhagias and hypermenorrhea,[2]; [8],prevents the occurrence of menorrhagias and hypermenorrhea
same,cessation of bleeding within,[3],2 to 4 days
same,duration of induced menstruation-like bleeding,[4]; [7],about 5 days
same,intensity of induced menstruation-like bleeding,[4]; [7],about 30 ml
same,occurrence of metrorrhagias,[4]; [7],prevents the occurrence of metrorrhagias
same,duration of induced menstruation-like bleeding,[4]; [8],about 5 days
same,intensity of induced menstruation-like bleeding,[4]; [8],about 30 ml
same,occurrence of metrorrhagias,[4]; [8],prevents the occurrence of metrorrhagias
